# Data taken from paper PMC3390974 (ACS medicinal chemistry letters, 2011).
# Assays:
# Test in all cases: Gαq-mediated intracellular calcium mobilization
# [1] = biological target: human 5-HT2B receptor (Homo sapiens, UniProt P41595); conditions: calcium flux, HEK-293
# [2] = biological target: human 5-HT2A receptor (Homo sapiens, UniProt P28223); conditions: calcium flux, HEK-293
# [3] = biological target: T1, human 5-HT2C (INI) receptor (Homo sapiens, UniProt P28335); conditions: for Emax: HEK293, read-out: 5-HT2C Emax, percentage of maximal activation by 5-HT, or activation at 10 μM for NA; for agonism at the 5-HT2C receptor (in words): calcium flux, HEK-293
# T1 sequence (P28335 33-458): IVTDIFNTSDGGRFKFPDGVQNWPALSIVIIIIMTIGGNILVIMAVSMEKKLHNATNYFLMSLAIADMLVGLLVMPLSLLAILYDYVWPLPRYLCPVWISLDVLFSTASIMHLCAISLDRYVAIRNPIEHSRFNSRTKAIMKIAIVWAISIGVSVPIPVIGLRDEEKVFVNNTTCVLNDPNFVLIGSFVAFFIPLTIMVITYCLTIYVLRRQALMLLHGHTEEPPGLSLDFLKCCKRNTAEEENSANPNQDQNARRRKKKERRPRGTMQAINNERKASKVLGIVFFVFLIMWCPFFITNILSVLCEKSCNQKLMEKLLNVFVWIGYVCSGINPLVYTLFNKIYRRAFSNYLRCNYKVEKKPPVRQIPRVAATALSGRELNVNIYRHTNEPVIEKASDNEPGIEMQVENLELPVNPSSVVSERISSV
# human 5-HT2B receptor, sequence (P41595 whole entry): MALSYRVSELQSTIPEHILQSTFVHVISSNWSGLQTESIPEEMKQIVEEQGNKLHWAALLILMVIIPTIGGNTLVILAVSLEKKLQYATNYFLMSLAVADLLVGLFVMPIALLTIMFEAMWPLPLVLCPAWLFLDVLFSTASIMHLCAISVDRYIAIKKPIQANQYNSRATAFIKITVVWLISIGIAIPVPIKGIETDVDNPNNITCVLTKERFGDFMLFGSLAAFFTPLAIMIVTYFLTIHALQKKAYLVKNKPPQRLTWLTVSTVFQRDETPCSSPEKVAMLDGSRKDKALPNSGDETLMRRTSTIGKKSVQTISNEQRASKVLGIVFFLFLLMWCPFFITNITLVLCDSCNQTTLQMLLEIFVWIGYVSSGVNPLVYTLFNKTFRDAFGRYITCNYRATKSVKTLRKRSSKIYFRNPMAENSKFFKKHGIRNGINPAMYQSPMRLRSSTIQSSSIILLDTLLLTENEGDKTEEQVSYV
# human 5-HT2A receptor, sequence (P28223 whole entry): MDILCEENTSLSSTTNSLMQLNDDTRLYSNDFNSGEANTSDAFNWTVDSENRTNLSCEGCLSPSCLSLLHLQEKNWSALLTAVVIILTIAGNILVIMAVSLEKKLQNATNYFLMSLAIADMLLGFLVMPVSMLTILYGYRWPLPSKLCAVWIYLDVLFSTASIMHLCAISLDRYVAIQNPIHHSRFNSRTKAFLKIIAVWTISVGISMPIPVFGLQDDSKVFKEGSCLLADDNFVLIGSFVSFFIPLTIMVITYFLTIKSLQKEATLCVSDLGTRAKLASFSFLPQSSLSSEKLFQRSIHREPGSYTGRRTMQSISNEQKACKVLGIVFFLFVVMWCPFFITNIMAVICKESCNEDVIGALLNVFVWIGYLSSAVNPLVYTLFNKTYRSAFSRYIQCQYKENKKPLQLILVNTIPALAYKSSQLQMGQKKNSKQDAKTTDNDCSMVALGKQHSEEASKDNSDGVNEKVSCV
Structure (SMILES),agonism at the 5-HT2B receptor (in words) [1],agonism at the 5-HT2A receptor (in words) [2],agonism at the 5-HT2C receptor (in words) [3],also measured
"Cl.NC[C@H]1C[C@@H]1c1ccccc1OCC1CC1 (racemic) [Compound 11e, trans-[2-(2-cyclopropylmethoxyphenyl)cyclopropyl]methylamine hydrochloride]",inactive,,,
"Cl.NC[C@H]1C[C@@H]1c1ccccc1OCC1CC1 (single isomer, unassigned) [(+)-11e, (+)-trans-[2-(2-cyclopropylmethoxyphenyl)cyclopropyl]methylamine hydrochloride]",activate neither,activate neither,,agonism at the 5-HT2B receptor (in words) ([1]; listed as (+)-trans-[2-(2-cyclopropylmethoxyphenyl)cyclopropyl]methylamine hydrochloride): no detectable agonism
COc1ccc(-c2ccccc2)cc1[C@H]1C[C@@H]1CN [Compound 9a],,,,EC50 [3]: 3.47 µM; Emax [3]: 67%
COc1ccc(-c2ccccc2C)cc1[C@H]1C[C@@H]1CN [Compound 9b],,,,EC50 [3]: 3.8 µM; Emax [3]: 64%
CCCCc1ccc(-c2ccc(OC)c([C@H]3C[C@@H]3CN)c2)cc1.Cl [Compound 9h],failure,failure,failure,
Cc1ccc(OCC(C)C)c([C@H]2C[C@@H]2CN)c1.Cl [Compound 10a],,,much less potent,
CCCCOc1ccc(C)cc1[C@H]1C[C@@H]1CN.Cl [Compound 10b],,,much less potent,
CC(C)COc1ccccc1[C@H]1C[C@@H]1CN.Cl [Compound 11c],inactive,,,
CCCCCOc1ccccc1[C@H]1C[C@@H]1CN.Cl [Compound 11d],abolished agonist activity,abolished agonist activity,abolished agonist activity,
Cl.NC[C@H]1C[C@@H]1c1ccccc1OCC1CCCCC1 [Compound 11g],abolished agonist activity,abolished agonist activity,abolished agonist activity,
